Assay results taken from US9434734B2, “Substituted pyrazoloquinazolinones and pyrroloquinazolinones as allosteric modulators of group II metabotropic glutamate receptors” (Domain Therapeutics, priority 2012, dated 2016).
Where a name gives a salt, the structure may show the parent alone.

Cc1cc(-c2cc3n(C)c(=O)c4ccc(-c5cc(C)nc(C)c5)cc4n3n2)ccn1 (as salt: salt) [Example 133, 8-(2,6-Dimethyl-pyridin-4-yl)-4-methyl-2-(2-methyl-pyridin-4-yl)-4H-pyrazolo[1,5-a]quinazolin-5-one]
melting point: > 250 °C

Cc1cncc(-c2ccc3c(=O)n(C)c4cc(-c5cc(C)nc(C)c5)nn4c3c2)c1 (as salt: salt) [Example 118, 2-(2,6-Dimethyl-pyridin-4-yl)-4-methyl-8-(5-methyl-pyridin-3-yl)-4H-pyrazolo[1,5-a]quinazolin-5-one]
melting point: > 250 °C

CCn1c(=O)c2ccc(-c3ccc(N)nc3)cc2n2nc(CCOC)cc12.Cl
melting point: 163 to 170 °C

CCCn1c(=O)c2ccc(-c3ccc(N)nc3)cc2n2nc(CCOC)cc12.Cl
melting point: 96 to 102 °C

Cc1cc(N)nc(C)c1-c1ccc2c(=O)n(C)c3cc(-c4ccccc4)nn3c2c1.Cl
melting point: > 250 °C

Cc1cc(-c2cc3n(C)c(=O)c4ccc(-c5ccc(N)nc5)cc4n3n2)cc(C)n1 (as salt: salt) [Example 112, 8-(6-Amino-pyridin-3-yl)-2-(2,6-dimethyl-pyridin-4-yl)-4-methyl-4H-pyrazolo[1,5-a]quinazolin-5-one]
melting point: > 250 °C

COCc1cccc(-c2ccc3c(=O)n(C)c4cc(-c5ccccc5)nn4c3c2)c1 [Example 9, 8-(3-Methoxymethyl-phenyl)-4-methyl-2-phenyl-4H-pyrazolo[1,5-a]quinazolin-5-one]
melting point: 132 to 134 °C

Cl.Cn1c(=O)c2ccc(-c3ccncc3)cc2n2nc(C3CCOCC3)cc12
melting point: 218 to 223 °C

Cl.Cn1c(=O)c2ccc(-c3ccc(N4CCCCC4)nc3)cc2n2nc(-c3ccccc3)cc12
melting point: 200 to 203 °C

CCn1c(=O)c2ccc(-c3cc(C)nc(C)c3)cc2n2nc(CCOC)cc12.Cl
melting point: 173 to 180 °C

Cc1cc(-c2ccc3c(=O)n(CC(F)(F)F)c4cc(C5CCOCC5)nn4c3c2)cc(C)n1.Cl
melting point: > 250 °C

Cn1c(=O)c2ccc(-c3cccc(-c4nn[nH]n4)c3)cc2n2nc(-c3ccccc3)cc12 (as salt: sodium) [Example 36, 4-Methyl-2-phenyl-8-[3-(2H-tetrazol-5-yl)-phenyl]-4H-pyrazolo[1,5-a]quinazolin-5-one]
melting point: > 250 °C

COCc1cc2n(C)c(=O)c3ccc(-c4cc(C)nc(C)c4)cc3n2n1.Cl
melting point: > 250 °C

COCc1cc2n(C)c(=O)c3ccc(-c4ccc(N)nc4)cc3n2n1.Cl
melting point: 235 to 242 °C

CCCn1c(=O)c2ccc(-c3cc(C)nc(C)c3)cc2n2nc(C3CCCC3)cc12.Cl
melting point: > 250 °C

Cl.Cn1c(=O)c2ccc(-c3ccc(N)nc3)cc2n2nc(-c3ccccc3)cc12 [Example 2, 8-(6-Amino-pyridin-3-yl)-4-methyl-2-phenyl-4H-pyrazolo[1,5-a]quinazolin-5-one]
melting point: 241 to 244 °C

Cc1cc(-c2cc3n(C)c(=O)c4ccc(-c5cccnc5C)cc4n3n2)cc(C)n1 (as salt: salt) [Example 113, 2-(2,6-Dimethyl-pyridin-4-yl)-4-methyl-8-(2-methyl-pyridin-3-yl)-4H-pyrazolo[1,5-a]quinazolin-5-one]
melting point: > 250 °C

Cc1cc(-c2cc3n(C)c(=O)c4ccc(-c5ccn[nH]5)cc4n3n2)cc(C)n1.Cl
melting point: > 250 °C

Cl.Cn1c(=O)c2ccc(-c3ccc(N)nn3)cc2n2nc(C3CCOCC3)cc12
melting point: 140 to 146 °C

Cn1c(=O)c2ccc(-c3ccc(F)cc3)cc2n2nc(-c3ccccc3)cc12 [Example 12, 8-(4-Fluoro-phenyl)-4-methyl-2-phenyl-4H-pyrazolo[1,5-a]quinazolin-5-one]
melting point: 178 to 180 °C

Cc1cc(-c2ccc3c(=O)n(CC(F)(F)F)c4cc(C5CCCC5)nn4c3c2)cc(C)n1.Cl
melting point: > 250 °C

CC(C)Cn1c(=O)c2ccc(-c3cccc(S(=O)(=O)N(C)C)c3)cc2n2nc(-c3ccccc3)cc12 [Example 41, 3-(4-isobutyl-5-oxo-2-phenyl-4,5-dihydro-pyrazolo[1,5-a]quinazolin-8-yl)-N,N-dimethyl-benzenesulfonamide]
melting point: 159 to 163 °C

Cc1ccc(-c2ccc3c(=O)n(C)c4cc(-c5cc(C)nc(C)c5)nn4c3c2)cn1 (as salt: salt) [Example 117, 2-(2,6-Dimethyl-pyridin-4-yl)-4-methyl-8-(6-methyl-pyridin-3-yl)-4H-pyrazolo[1,5-a]quinazolin-5-one]
melting point: > 250 °C

CCCn1c(=O)c2ccc(-c3cc(C)nc(C)c3)cc2n2nc(CCOC)cc12.Cl
melting point: 120 to 125 °C

Cn1c(=O)c2ccc(-c3cccnc3C(F)(F)F)cc2n2nc(-c3ccnc(C(F)(F)F)c3)cc12 [Example 142, 4-Methyl-2-(2-trifluoromethyl-pyridin-4-yl)-8-(2-trifluoromethyl-pyridin-3-yl)-4H-pyrazolo[1,5-a]quinazolin-5-one]
melting point: > 250 °C

Cc1cc(-c2cc3n(C)c(=O)c4ccc(-c5cccnc5C)cc4n3n2)ccn1 (as salt: salt) [Example 132, 2-(2-methyl-pyridin-4-yl)-4-methyl-8-(2-methyl-pyridin-3-yl)-4H-pyrazolo[1,5-a]quinazolin-5-one]
melting point: > 250 °C

Cc1ncccc1-c1ccc2c(=O)n(C)c3cc(C4CCOCC4)nn3c2c1.Cl
melting point: 167 to 169 °C

COc1cccc(-c2ccc3c(=O)n(C)c4cc(-c5ccccc5)nn4c3c2)c1 [Example 11, 8-(3-Methoxy-phenyl)-4-methyl-2-phenyl-4H-pyrazolo[1,5-a]quinazolin-5-one]
melting point: 182 to 185 °C

Cc1ccc(-c2ccc3c(=O)n(C)c4cc(C5CCOCC5)nn4c3c2)c(C)n1.Cl
melting point: 231 to 235 °C

Cc1ncccc1-c1ccc2c(=O)n(C)c3cc(-c4cnn(C)c4)nn3c2c1.Cl
melting point: 169 to 187 °C

Cl.Cn1c(=O)c2ccc(-c3ccc(N4CCOCC4)nc3)cc2n2nc(-c3ccccc3)cc12
melting point: 194 to 196 °C

Cn1c(=O)c2ccc(-c3cn[nH]c3)cc2n2nc(C3CCOCC3)cc12 [Example 87, 4-Methyl-8-(1H-pyrazol-4-yl)-2-(tetrahydro-pyran-4-yl)-4H-pyrazolo[1,5-a]quinazolin-5-one]
melting point: > 250 °C

Cl.Cn1c(=O)c2ccc(-c3ccc(N)nc3C(F)(F)F)cc2n2nc(-c3ccccc3)cc12
melting point: > 250 °C

Cn1c(=O)c2ccc(-c3nn[nH]n3)cc2n2nc(-c3ccccc3)cc12 [Example 22, 4-Methyl-2-phenyl-8-(2H-tetrazol-5-yl)-4H-pyrazolo[1,5-a]quinazolin-5-one]
melting point: > 250 °C

Cc1ncccc1-c1ccc2c(=O)n(C)c3cc(-c4cccnc4)nn3c2c1 (as salt: salt) [Example 134, 4-Methyl-8-(2-methyl-pyridin-3-yl)-2-pyridin-3-yl-4H-pyrazolo[1,5-a]quinazolin-5-one]
melting point: > 250 °C

COc1ccc(-c2ccc3c(=O)n(C)c4cc(-c5cnn(C)c5)nn4c3c2)cc1 [Example 125, 8-(4-Methoxy-phenyl)-4-methyl-2-(1-methyl-1H-pyrazol-4-yl)-4H-pyrazolo[1,5-a]quinazolin-5-one]
melting point: 211 to 213 °C

Cc1cc(-c2cc3n(C)c(=O)c4ccc(-c5cnccc5C)cc4n3n2)cc(C)n1 (as salt: salt) [Example 119, 2-(2,6-Dimethyl-pyridin-4-yl)-4-methyl-8-(4-methyl-pyridin-3-yl)-4H-pyrazolo[1,5-a]quinazolin-5-one]
melting point: > 250 °C

Cn1c(=O)c2ccc(-c3cccc(-c4nn[nH]n4)c3)cc2n2nc(C3CCOCC3)cc12 (as salt: sodium) [Example 96, 4-Methyl-2-(tetrahydro-pyran-4-yl)-8-[3-(2H-tetrazol-5-yl)-phenyl]-4H-pyrazolo[1,5-a]quinazolin-5-one]
melting point: 219 to 227 °C

Cc1cc(-c2ccc3c(=O)n(C)c4cc(-c5cc(C)nc(C)c5)nn4c3c2)cc(C)n1 (as salt: salt) [Example 114, 2,8-Bis-(2,6-dimethyl-pyridin-4-yl)-4-methyl-4H-pyrazolo[1,5-a]quinazolin-5-one]
melting point: > 250 °C

COc1ccc(-c2ccc3c(=O)n(C)c4cc(-c5ccccc5)nn4c3c2)cc1 [Example 7, 8-(4-Methoxy-phenyl)-4-methyl-2-phenyl-4H-pyrazolo[1,5-a]quinazolin-5-one]
melting point: > 250 °C

COCCc1cc2n(C)c(=O)c3ccc(-c4cc(C)nc(C)c4)cc3n2n1.Cl
melting point: 241 to 245 °C

Cc1cc(-c2cc3n(C)c(=O)c4ccc(-c5cccnc5)cc4n3n2)cc(C)n1 (as salt: salt) [Example 116, 2-(2,6-Dimethyl-pyridin-4-yl)-4-methyl-8-pyridin-3-yl-4H-pyrazolo[1,5-a]quinazolin-5-one]
melting point: > 250 °C

CCc1ncccc1-c1ccc2c(=O)n(C)c3cc(-c4cc(C)nc(C)c4)nn3c2c1 (as salt: salt) [Example 120, 2-(2,6-Dimethyl-pyridin-4-yl)-8-(2-ethyl-pyridin-3-yl)-4-methyl-4H-pyrazolo[1,5-a]quinazolin-5-one]
melting point: > 250 °C
